Values after ≈ are worked out from the molar mass of the structure shown.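 Assay format: 96-well plates, 48-hour exposure. The concentration for 50% growth inhibition is given as GI50. TGI: concentration producing complete growth inhibition.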
Experiments:
Experiment in all cases: DTP human tumour cell line panel, 48 h
OVCAR-5 ovarian = test system: OVCAR-5 ovarian
SK-MEL-28 melanoma = test system: SK-MEL-28 melanoma
HOP-92 NSCLC = test system: HOP-92 NSCLC
UO-31 renal = test system: UO-31 renal
DU-145 prostate = test system: DU-145 prostate
IGROV1 ovarian = test system: IGROV1 ovarian
ACHN renal = test system: ACHN renal
K-562 leukemia = test system: K-562 leukemia
HL-60(TB) leukemia = test system: HL-60(TB) leukemia
MDA-N = test system: MDA-N
A498 renal = test system: A498 renal
SF-268 CNS = test system: SF-268 CNS
UACC-62 melanoma = test system: UACC-62 melanoma
SR leukemia = test system: SR leukemia
SF-295 CNS = test system: SF-295 CNS
OVCAR-3 ovarian = test system: OVCAR-3 ovarian
786-0 renal = test system: 786-0 renal
RPMI-8226 leukemia = test system: RPMI-8226 leukemia
T-47D breast = test system: T-47D breast
SW-620 colon = test system: SW-620 colon
NCI/ADR-RES ovarian = test system: NCI/ADR-RES ovarian
M14 melanoma = test system: M14 melanoma
MALME-3M melanoma = test system: MALME-3M melanoma
A549 NSCLC = test system: A549 NSCLC
CCRF-CEM leukemia = test system: CCRF-CEM leukemia
SK-MEL-2 melanoma = test system: SK-MEL-2 melanoma
UACC-257 melanoma = test system: UACC-257 melanoma
SK-MEL-5 melanoma = test system: SK-MEL-5 melanoma
NCI-H226 lung = test system: NCI-H226 lung
HCT-15 colon = test system: HCT-15 colon

Work on `CC1(C)CC(=O)C2=C(C1)NC(SSC1=C(C#N)C(c3ccccc3)C3=C(CC(C)(C)CC3=O)N1)=C(C#N)C2c1ccccc1` (centres undefined) yielded a GI50 (OVCAR-5 ovarian) of 27.8 µg/mL (≈ 44.9 µM), a TGI (OVCAR-5 ovarian) of 50.9 µg/mL (≈ 82.2 µM) and a GI50 (SK-MEL-28 melanoma) of 27.7 µg/mL (≈ 44.7 µM). It also gave a TGI (SK-MEL-28 melanoma) of 48.6 µg/mL (≈ 78.5 µM), a GI50 (HOP-92 NSCLC) of 29 µg/mL (≈ 46.9 µM) and a TGI (HOP-92 NSCLC) of 51 µg/mL (≈ 82.4 µM). The GI50 (UO-31 renal) was 21 µg/mL (≈ 33.9 µM), the TGI (UO-31 renal) was 40.5 µg/mL (≈ 65.4 µM) and the GI50 (DU-145 prostate) was 44.7 µg/mL (≈ 72.2 µM). It also gave a TGI (DU-145 prostate) of 126 µg/mL (≈ 204 µM), a GI50 (IGROV1 ovarian) of 28.3 µg/mL (≈ 45.7 µM) and a TGI (IGROV1 ovarian) of 50.1 µg/mL (≈ 80.9 µM). It also gave a GI50 (ACHN renal) of 26.1 µg/mL (≈ 42.3 µM), a TGI (ACHN renal) of 46.8 µg/mL (≈ 75.6 µM) and a GI50 (K-562 leukemia) of 42.3 µg/mL (≈ 68.4 µM). For the same molecule, the TGI (K-562 leukemia) was 145 µg/mL (≈ 235 µM), the GI50 (HL-60(TB) leukemia) was 33.7 µg/mL (≈ 54.5 µM) and the TGI (HL-60(TB) leukemia) was 97.8 µg/mL (≈ 158 µM). It also gave a GI50 (MDA-N) of 21 µg/mL (≈ 33.9 µM), a TGI (MDA-N) of 40.4 µg/mL (≈ 65.3 µM) and a GI50 (A498 renal) of 30.4 µg/mL (≈ 49.2 µM). It also gave a TGI (A498 renal) of 59.8 µg/mL (≈ 96.6 µM), a GI50 (SF-268 CNS) of 28 µg/mL (≈ 45.3 µM) and a TGI (SF-268 CNS) of 53.7 µg/mL (≈ 86.7 µM). For the same molecule, the GI50 (UACC-62 melanoma) was 26.3 µg/mL (≈ 42.5 µM), the TGI (UACC-62 melanoma) was 47.6 µg/mL (≈ 76.8 µM) and the GI50 (SR leukemia) was 26.5 µg/mL (≈ 42.8 µM). For the same molecule, the TGI (SR leukemia) was 103 µg/mL (≈ 166 µM), the GI50 (SF-295 CNS) was 112 µg/mL (≈ 180 µM) and the TGI (SF-295 CNS) was > 150 µg/mL. The GI50 (OVCAR-3 ovarian) was 26.3 µg/mL (≈ 42.5 µM), the TGI (OVCAR-3 ovarian) was 47.8 µg/mL (≈ 77.2 µM) and the GI50 (786-0 renal) was 28.4 µg/mL (≈ 46 µM). For the same molecule, the TGI (786-0 renal) was 49.5 µg/mL (≈ 80 µM), the GI50 (RPMI-8226 leukemia) was 46.5 µg/mL (≈ 75.2 µM) and the TGI (RPMI-8226 leukemia) was 134 µg/mL (≈ 217 µM). It also gave a GI50 (T-47D breast) of 30.7 µg/mL (≈ 49.5 µM), a TGI (T-47D breast) of 62.4 µg/mL (≈ 101 µM) and a GI50 (SW-620 colon) of 28.6 µg/mL (≈ 46.2 µM). For the same molecule, the TGI (SW-620 colon) was 51.8 µg/mL (≈ 83.7 µM), the GI50 (NCI/ADR-RES ovarian) was 32.9 µg/mL (≈ 53.2 µM) and the TGI (NCI/ADR-RES ovarian) was 65.9 µg/mL (≈ 107 µM). It also gave a GI50 (M14 melanoma) of 22.5 µg/mL (≈ 36.4 µM), a TGI (M14 melanoma) of 43.6 µg/mL (≈ 70.5 µM) and a GI50 (MALME-3M melanoma) of 27.3 µg/mL (≈ 44.1 µM). The TGI (MALME-3M melanoma) was 48.6 µg/mL (≈ 78.5 µM), the GI50 (A549 NSCLC) was 50.5 µg/mL (≈ 81.7 µM) and the TGI (A549 NSCLC) was > 150 µg/mL. For the same molecule, the GI50 (CCRF-CEM leukemia) was 24.6 µg/mL (≈ 39.8 µM), the TGI (CCRF-CEM leukemia) was > 150 µg/mL and the GI50 (SK-MEL-2 melanoma) was 26.5 µg/mL (≈ 42.8 µM). The TGI (SK-MEL-2 melanoma) was 49.8 µg/mL (≈ 80.5 µM), the GI50 (UACC-257 melanoma) was 25.4 µg/mL (≈ 41.1 µM) and the TGI (UACC-257 melanoma) was 46 µg/mL (≈ 74.3 µM). It also gave a GI50 (SK-MEL-5 melanoma) of 27.8 µg/mL (≈ 44.9 µM), a TGI (SK-MEL-5 melanoma) of 48.7 µg/mL (≈ 78.7 µM) and a GI50 (NCI-H226 lung) of 32 µg/mL (≈ 51.7 µM). For the same molecule, the TGI (NCI-H226 lung) was 70.8 µg/mL (≈ 114 µM) and the GI50 (HCT-15 colon) was 26.8 µg/mL (≈ 43.3 µM).
